Results reported in patent US20240327463A1, “ANTIBACTERIAL PRODUCTS” (priority 2017, published 2024).
Values after ≈ are worked out from the molar mass of the structure shown. Like-named read-outs stand apart in the source and are kept apart here. Bridge positions count the residues as written; N and C are the ends. Square brackets hold non-standard residues; d marks the D form. Peptide text beside a SMILES is read from it. dNMeF = CN[C@H](Cc1ccccc1)C(=O)O

Tests used:
VRE 1001 = type: cell-based, Enterococcus faecalis
Outline: (§1)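 Bacteria were cultured in Mueller Hinton broth, and all incubations were run at 37 °C. Compounds were serially diluted in Mueller Hinton across the plate up to well 11. Each determination was repeated three times.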

VRE 1004 = type: cell-based, Enterococcus faecalis
Outline: as §1

VRE 1008 = type: cell-based, Enterococcus faecalis
Outline: as §1

VRE 1002 = type: cell-based, Enterococcus faecalis
Outline: as §1

S. aureus/MRSA strains = assay: Minimum bactericidal concentrations against S. aureus/MRSA strains; type: cell-based, Staphylococcus aureus; conditions: tested S. aureus/MRSA strains
From the text: (§2) The inclusion of 3 arginines in the above case likely perturbs the amphiphilic character of the teixobactin, resulting in a decrease in activity. […] Importantly, the hydrophobic-hydrophilic balance of these analogues was similar to natural teixobactin (two cationic charges). […] The minimum bactericidal concentrations (MBC) of teixobactin analogues against S. aureus/MRSA strains (Table 11) has been further determined. […] In view of narrow MIC distribution values and bactericidal properties, attention was focused on Compound 26 and further investigated its biological properties.

Pseudomonas aeruginosa = assay: Activity against Pseudomonas aeruginosa; type: cell-based
From the text: as §2

[1] = system: panel of antibiotic-resistant and antibiotic susceptible Gram-positive pathogens; conditions: average over tested strains
Outline: (§3)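 Each peptide, taken up in DMSO, is diluted stepwise by halves in Mueller Hinton broth (highest level 512 μg/ml). Plates incubate 24 hours at 37° C. The MIC is read as the lowest concentration lacking visible growth, with triplicate repeats.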

MRSA ATCC 33591 [2] = conditions: MRSA ATCC 33591
Outline: as §3

S. aureus ATCC 29213 [3] = assay: Time-kill kinetics against S. aureus ATCC 29213; type: cell-based, Staphylococcus aureus; conditions: 0.5 μg/ml or 1 μg/ml; at 8 h
S. aureus ATCC 29213 [4] = assay: Mice-eye model of S. aureus keratitis; type: in vivo; conditions: for mean corneal thickness: baseline 93.8±2.9 μm
From the text: The in vivo efficacy of Compound 26 in the mice-eye model of S. aureus keratitis was examined. S. aureus is one of the major etiological agents for bacterial keratitis and the toxic secretions produced by this microorganism have been implicated in corneal melt, leading to significant morbidity and vision loss. […] A total of 8 doses were applied and the progression of the infection was monitored by slit lamp examination, anterior segment optical coherent tomography (AS-OCT) and microbiological enumeration of the bacterial bioburden. Mice cornea treated with PBS had severe clinical presentation indicated by chemosis, significant presence of hypopyon like materials and corneal infiltrates (FIG. 4).

[5] = rabbit; 50 μl of 0.3% (w/v) topically 4 times/day; fluorescein staining
Experimental: The in vivo toxicity of Compound 26 in a rabbit corneal damage model was examined. A 50 μl of 0.3% (w/v) solution was applied topically (4 times/day) to the circularly debrided cornea and reepithelialisation was monitored by fluorescein staining. Vehicle alone served as control.

S. aureus ATCC 29213 [6] = system: S. aureus ATCC 29213
MRSA ATCC 700699 = assay: microbe, parasite or virus in culture
Outline: as §3

VRE ATCC 29212 = assay: microbe, parasite or virus in culture; conditions: ATCC 29212
Outline: as §3

VRE ATCC 700802 = assay: microbe, parasite or virus in culture
Outline: as §3

MRSA DR 42412 (sputum) = assay: microbe, parasite or virus in culture
Outline: as §3

MRSA DM21455 (eye) = assay: microbe, parasite or virus in culture
Outline: as §3

[7] = system: Staphylococcus aureus ATCC 29213; assay: microbe, parasite or virus in culture
Outline: as §3

[8] = system: human primary dermal fibroblasts (hDFs); assay: in vitro
Experimental: (§4) It was important to evaluate the cytotoxicity of Compound 26 on mammalian cells prior to in vivo studies. The cytotoxicity of Compound 26 in human lung epithelial cell line A549 and primary dermal fibroblasts (hDFs) was determined. Both of these cell culture models are already established for evaluation of cytotoxicity of antimicrobial peptides.
(§5) The stock solution of Compound 26 (500 μg/ml) was prepared fresh by directly dissolving Compound 26 in cell culture medium and used. Cells were treated with dimethyl sulfoxide (DMSO, 0.1% v/v) or nocodazole (5 μg/ml dissolved in DMSO) as controls. At the end of the treatment period, metabolic activities of cells were quantified by MTS-based cell viability assay. […] After 24 h treatment with Compound 26, A549 cells (c) and hDFs (d) were fixed, fluorescently stained with rhodamine-phalloidin (red), alexa fluor 488 conjugated anti-α-tubulin (green) and Hoechst 33342 (blue) and imaged using IN Cell Analyzer 2200 automated microscope. Representative images of cells treated with Compound 26 (62.5 μg/ml for 24 h) or nocodazole (10 μg/ml, toxicity control) are shown in FIG. 2 c,d.

in vitro = conditions: human
Experimental: as §4, §5

[9] = system: human lung epithelial cell line A549; assay: in vitro
Experimental: as §4, §5

MRSA 1003 = type: cell-based, Staphylococcus aureus
Outline: as §1

MRSA ATCC 33591 [10] = system: MRSA ATCC 33591
[11] = system: Bacillus Cereus ATCC 11788; type: cell-based
Outline: as §1

[12] = system: Staphylococcus saprophyticus ATCC BAA 750; type: cell-based
Outline: as §1

[13] = system: Staphylococcus saprophyticus ATCC 49907; type: cell-based
Outline: as §1

[14] = system: Bacillus Subtilis ATCC 6633; type: cell-based
Outline: as §1

[15] = system: Staphylococcus saprophyticus ATCC 15305; type: cell-based
Outline: as §1

[16] = system: Staphylococcus saprophyticus ATCC 49453; type: cell-based
Outline: as §1

Enterococcus = system: Enterococcus
Outline: as §3

SA4299 = type: cell-based; conditions: Table 11
Outline: as §1

SE12228 = type: cell-based
Outline: as §1

ATCC 29212 = assay: microbe, parasite or virus in culture; conditions: Enterococcus
Outline: as §3

M. smegmatis ATCC 607 = assay: microbe, parasite or virus in culture; conditions: Mycolicibacterium smegmatis, ATCC607
Outline: as §3

[17] = system: Staphylococcus aureus ATCC 29213; conditions: reported for a teixobactin analogue; cited from earlier work

## CC[C@@H](C)[C@@H](NC(=O)[C@@H](CCCNC(=N)N)NC(=O)[C@H](CO)NC(=O)[C@@H](NC(=O)[C@@H](Cc1ccccc1)NC)[C@@H](C)CC)C(=O)N[C@H](C(=O)N[C@@H](CO)C(=O)N[C@H]1C(=O)N[C@@H](C)C(=O)N[C@@H](CC(C)C)C(=O)N[C@@H]([C@@H](C)CC)C(=O)O[C@H]1C)[C@@H](C)CC [Compound 26, D-Arg4-Leu10-teixobactin]
VRE 1001
  MIC: 0.5 µg/mL (≈ 0.407 µM)
VRE 1004
  MIC: 0.25 µg/mL (≈ 0.203 µM)
VRE 1008
  MIC: 0.5 µg/mL (≈ 0.407 µM)
VRE 1002
  MIC: 1 µg/mL (≈ 0.813 µM)
S. aureus/MRSA strains
  MBC relative to MIC: ≤ 4 times the MIC
Pseudomonas aeruginosa
  activity against Pseudomonas aeruginosa (Gram negative bacteria): inactive
[1]
  average MIC: 0.27 µg/mL
MRSA ATCC 33591 [2]; Table 10
  MIC (MRSA): 0.125 µg/mL (≈ 0.102 µM)
S. aureus ATCC 29213 [3]
  decrease in bacterial viability (time-kill): ≥log10 decrease in bacterial viability
S. aureus ATCC 29213 [4]; 24 h post treatment, 0.3% topical
  mean corneal thickness: 92.3±12.5 μm
S. aureus ATCC 29213 [4]; 48 h post treatment, 0.3% topical
  mean corneal thickness: 121.7±3.2 μm
S. aureus ATCC 29213 [4]; after 8 dosages
  cornea with detectable bacterial colonies: Five out of six
S. aureus ATCC 29213 [4]; corneal tissues harvested after 8 dosages, ± standard error of the mean
  mean log10 CFU/tissue: 3.97±0.19 log10 CFU/tissue
S. aureus ATCC 29213 [4]; mice, 0.3% topical, 8 doses from 6 h p.i.
  clinical appearance of infected cornea (slit lamp): remained clear and no signs of corneal defects
[5]
  corneal wound closure / reepithelialisation versus PBS: no significant difference in wound closure
S. aureus ATCC 29213 [6]
  calculated frequency of resistance: < 10^−10
S. aureus ATCC 29213 [6]; 5×, 10×, 20×MIC
  resistant mutants, single step resistance: could not be obtained
MRSA ATCC 700699; ATCC 700699
  MIC: 0.25 µg/mL (≈ 0.203 µM)
VRE ATCC 29212
  MIC: 0.5 µg/mL (≈ 0.407 µM)
VRE ATCC 700802; ATCC 700802
  MIC: 0.5 µg/mL (≈ 0.407 µM)
MRSA DR 42412 (sputum); DR 42412 (sputum)
  MIC: 0.0313 µg/mL (≈ 0.0255 µM)
MRSA DM21455 (eye); DM21455 (eye)
  MIC: 0.0313 µg/mL (≈ 0.0255 µM)
[7]; SA29213, Table 11
  MIC: <0.0625 µg/mL
[8]
  cell morphology, high content images: absence of any cytoskeletal and nuclear disruption
In vitro; A549 lung epithelial cells
  viability at 24 h, 250 µg/mL: 80%
In vitro; primary dermal fibroblasts (hDFs)
  viability at 24 h, 250 µg/mL: 80%
[9]
  cell morphology, high content images: absence of any cytoskeletal and nuclear disruption
MRSA 1003
  MIC: 0.5 µg/mL (≈ 0.407 µM)
MRSA ATCC 33591 [10]
  calculated frequency of resistance: < 10^−10
MRSA ATCC 33591 [10]; 5×, 10×, 20×MIC
  resistant mutants, single step resistance: could not be obtained
[11]
  MIC: 0.5 µg/mL (≈ 0.407 µM)
[12]; Staphylococcus saprophyticus ATCC BAA 750, Table 11
  MIC: <0.0625 µg/mL
[13]; Staphylococcus saprophyticus ATCC 49907, Table 11
  MIC: <0.0625 µg/mL
[14]
  MIC: 0.125 µg/mL (≈ 0.102 µM)
[15]; Staphylococcus saprophyticus ATCC 15305, Table 11
  MIC: <0.0625 µg/mL
[16]; Staphylococcus saprophyticus ATCC 49453, Table 11
  MIC: <0.0625 µg/mL

## CC[C@@H](C)[C@@H](NC(=O)[C@@H](CCCNC(=N)N)NC(=O)[C@H](CCCNC(=N)N)NC(=O)[C@@H](NC(=O)[C@@H](Cc1ccccc1)NC)[C@@H](C)CC)C(=O)N[C@H](C(=O)N[C@@H](CO)C(=O)N[C@H]1C(=O)N[C@@H](CCCNC(=N)N)C(=O)N[C@@H](CC(C)C)C(=O)N[C@@H]([C@@H](C)CC)C(=O)O[C@H]1C)[C@@H](C)CC [Compound 31, Arg3-D-Arg4-Arg9-Leu10-teixobactin] (H-[dNMeF]IR[dR][dI]IS[dT]RLI; ester 8-C)
VRE 1001
  MIC: 2 µg/mL (≈ 1.45 µM)
VRE 1004
  MIC: 4 µg/mL (≈ 2.89 µM)
VRE 1008
  MIC: 8 µg/mL (≈ 5.78 µM)
VRE 1002
  MIC: 8 µg/mL (≈ 5.78 µM)
Enterococcus
  MIC in Enterococcus: 2 to 8 µg/mL
MRSA ATCC 33591 [2]
  MIC against MRSA ATCC 33591: 1 µg/mL (≈ 0.723 µM)
MRSA ATCC 700699; ATCC 700699
  MIC: 2 µg/mL (≈ 1.45 µM)
VRE ATCC 29212
  MIC: 4 µg/mL (≈ 2.89 µM)
VRE ATCC 700802; ATCC 700802
  MIC: 4 µg/mL (≈ 2.89 µM)
MRSA DR 42412 (sputum); DR 42412 (sputum)
  MIC: 2 µg/mL (≈ 1.45 µM)
MRSA DM21455 (eye); DM21455 (eye)
  MIC: 2 µg/mL (≈ 1.45 µM)
[7]
  MIC against Staphylococcus aureus ATCC 29213: 1 µg/mL (≈ 0.723 µM)
MRSA 1003
  MIC: 2 µg/mL (≈ 1.45 µM)
[11]
  MIC: 1 µg/mL (≈ 0.723 µM)
SA4299
  MIC: 1 µg/mL (≈ 0.723 µM)
[12]; ATCC BAA 750
  MIC: <0.0625 µg/mL
SE12228
  MIC: <0.0625 µg/mL
[13]; ATCC 49907
  MIC: <0.0625 µg/mL
[14]
  MIC: <0.0625 µg/mL
[15]; ATCC 15305
  MIC: 0.25 µg/mL (≈ 0.181 µM)
[16]; ATCC 49453
  MIC: <0.0625 µg/mL

## CN[C@H](CC(C)C)C(=O)N[C@H]1C(=O)N[C@@H](CC(N)=O)C(=O)N[C@H]2C(=O)N[C@H]3C(=O)N[C@H](C(=O)N[C@H](C(=O)O)c4cc(O)cc(O)c4-c4cc3ccc4O)[C@H](O)c3ccc(c(Cl)c3)Oc3cc2cc(c3O[C@@H]2O[C@H](CO)[C@@H](O)[C@H](O)[C@H]2O[C@H]2C[C@](C)(N)[C@H](O)[C@H](C)O2)Oc2ccc(cc2Cl)[C@H]1O [Vancomycin, reference compound]
ATCC 29212
  MIC: > 4 µg/mL
MRSA ATCC 700699; Staphylococcus aureus
  MIC: 2 µg/mL (≈ 1.38 µM)
VRE ATCC 700802; Enterococcus
  MIC: > 4 µg/mL
MRSA DR 42412 (sputum); Staphylococcus aureus, MRSA
  MIC: 2 µg/mL (≈ 1.38 µM)
MRSA DM21455 (eye); Staphylococcus aureus, MRSA
  MIC: 2 µg/mL (≈ 1.38 µM)
M. smegmatis ATCC 607
  MIC: > 64 µg/mL
[7]; Staphylococcus aureus, ATCC29213
  MIC: 4 µg/mL (≈ 2.76 µM)

## Lys3-D-Lys4-Lys10-teixobactin
[17]
  reported MIC against Staphylococcus aureus ATCC 29213: 8 µg/mL
